Laboratory results reported in US20070265208A1, “Association of calpain inhibitors and reactive oxygen species trapping agents” (priority 2000, published 2007).

Key:
[1] = system: calpain activity in rat glial cells (C6); experiment: In situ calpain activity in rat glial cells C6 stimulated by maitotoxin; format: cell-based; conditions: read-out: Inhibition human calpain I, in situ (C6) [IC50 (nM)]; n = 3; maitotoxin 1 nM; 1 h 30 min
Experimental: (§1) Human neuroblastomas SHSY5Y and rat glial cells C6 are seeded at a rate of 50,000 and 25,000 cells respectively per well on 96-well plates in DMEM 10% FBS. The next day, the cells which have adhered are washed 3 times in DMEM medium without serum and 40 mM Hepes. 100 microlitres of product B is placed in the wells. After incubation for 1 hour at 37° C. under an atmosphere of 5% CO2, 10 μl containing the fluorescent substrate of calpain (Suc-Leu-Tyr-AMC) and maitotoxin (Sigma, ref: M-9159), in order to obtain a final concentration in the well of 100 μM and of 1 nM respectively are added.
(§2) In order to determine the total activity of the cell enzyme, wells containing no product are added to the plate (100 μL DMSO 100th plus 10 μl of MTX and substrate). The background noise is determined by adding control wells with no MTX. Each concentration of the products (0.3 μM to 200 μM for the SHSY5Y's and 0.01 μM to 100 μM for the C6's) is tested in triplicate. The plates are shaken, the fluorescence is read at 380/460 nm using the Victor at T zero. Incubation takes place for four hours for the SHSY5Y and 1 hour 30 minutes for the C6 cells at 30° C. in darkness.

[2] = system: calpain activity in human neuroblastomas (SHSY5Y); experiment: In situ calpain activity in human neuroblastomas SHSY5Y stimulated by maitotoxin; format: cell-based; conditions: read-out: Inhibition human calpain I, in situ (SHSY5Y) [IC50 (nM)]; n = 6; maitotoxin 1 nM; 4 h
Experimental: as §1, §2

CC(C)C[C@@H](C=O)NC(=O)[C@H](CC(C)C)NC(=O)OCc1ccccc1 [EXAMPLE 1 B, benzyl (1S)-1-({[(1S)-1-formyl-3-methylbutyl]amino}carbonyl)-3-methylbutylcarbamate]
IC50 [1]: 1750 ± 340 nM | IC50 [2]: 13400 ± 2390 nM
